# From patent US12371454B2, “Cyclic peptide compound having Kras inhibitory action” (priority 2019, dated 2025)
# Starred links: 1 amine or outer side, 2 acyl side, 3 side chain; linkers in the order of their positions; H or OH if unused. Positions of bridges follow the written chain, without caps; N, C: chain ends. Non-standard residues stand in square brackets, D forms with d. Residues, ends and D or L forms follow the SMILES beside them. *: point of attachment. hPhe(3-Cl-4-CF3) = N[C@@H](CCc1ccc(C(F)(F)F)c(Cl)c1)C(=O)O; NMeAbu(4,4,4-F3) = CN[C@@H](CC(F)(F)F)C(=O)O; NMePhe(4-Cl) = CN[C@@H](Cc1ccc(Cl)cc1)C(=O)O; NMePhe(4-Me) = CN[C@@H](Cc1ccc(C)cc1)C(=O)O; NMePhe(3-F) = CN[C@@H](Cc1cccc(F)c1)C(=O)O; NMePhe(4-F) = CN[C@@H](Cc1ccc(F)cc1)C(=O)O; X33 = Cc1ccc(CC[C@H](N[*:1])C(=O)[*:2])cc1; NMedβ3hAla = C[C@H](CC(=O)[*:2])N(C)[*:1]; NMePhe(2-F) = CN[C@@H](Cc1ccccc1F)C(=O)O; Phe(3-I) = N[C@@H](Cc1cccc(I)c1)C(=O)O; dαMeGly(allyl) = C=CC[C@@](C)(N)C(=O)O; NMeAla(cPr) = CN[C@@H](CC1CC1)C(=O)O; NMeCha = CN[C@@H](CC1CCCCC1)C(=O)O; NMeGly(cPr) = CN[C@H](C(=O)O)C1CC1; Pro(4-oxo) = O=C1CN[C@H](C(=O)O)C1; NMeCba = CN[C@@H](CC1CCC1)C(=O)O; NMeChg = CN[C@H](C(=O)O)C1CCCCC1; NMeF = CN[C@@H](Cc1ccccc1)C(=O)O; NMeI = CC[C@H](C)[C@H](NC)C(=O)O; NMeD = CN[C@@H](CC(=O)O)C(=O)O; NMeL = CN[C@@H](CC(C)C)C(=O)O; NEtAla = CCN[C@@H](C)C(=O)O; NMeV = CN[C@H](C(=O)O)C(C)C; NMeS = CN[C@@H](CO)C(=O)O; Pip = O=C(O)[C@@H]1CCCCN1; Morpholide = C1CN(*)CCO1; NMeA = CN[C@@H](C)C(=O)O; Nle = CCCC[C@H](N)C(=O)O; Piperidide = C1CCN(*)CC1; Ac5c = NC1(C(=O)O)CCCC1; Aze = O=C(O)[C@@H]1CCN1; Sar = CNCC(=O)O
# How the values were obtained:
# [1] = biological target: T1, Kras and SOS1 (biotin-tagged human Kras loaded with GDP, His-tagged human SOS1) (Homo sapiens, UniProt P01116, G12D); assay: Protein-protein interaction inhibition between Kras and SOS1 (KrasGl2D-SOS PPI) using AlphaScreen; type: binding; settings: AlphaScreen; biotin-tagged human Kras loaded with GDP, His-tagged human SOS1; read-out: KRAS G12D-SOS PPI IC50
# T1 construct: made in house; host or cells: E. coli (stated for Kras only)
# How it was run: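 Read-out is acceptor-bead light at 520-620 nm, arising when 680 nm-irradiated nickel donor beads pass singlet oxygen to streptavidin acceptors. The bead pair links His-tagged SOS1 with biotin-tagged, GDP-bound Kras from E. coli.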
# [2] = system: Human pancreatic cancer cell line AsPC-1; assay: Measurement of AsPC-1 cell growth inhibition (AsPC-1 CGI); type: cell-based; settings: 96 h
# How it was run: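 AsPC-1 cells in 15% FBS RPMI-1640 were exposed to test compound for 96 hours at 37° C, with CellTiter-Glo as endpoint.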
# T1 sequence (P01116 1-188 isoform P01116-2 G12D): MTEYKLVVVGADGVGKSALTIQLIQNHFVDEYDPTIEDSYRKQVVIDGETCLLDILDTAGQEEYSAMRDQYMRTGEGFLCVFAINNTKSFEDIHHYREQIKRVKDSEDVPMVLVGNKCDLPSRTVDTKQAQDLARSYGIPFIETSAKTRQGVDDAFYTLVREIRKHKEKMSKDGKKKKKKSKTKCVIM
SMILES,IC50 [1] [nM],IC50 [2] [nM]
CC[C@H](C)[C@@H]1NC(=O)[C@H](CC(C)C)N(C)C(=O)C[C@@H](C(=O)N(C)C)N(C)C(=O)[C@H]([C@@H](C)CC)N(C)C(=O)C2(CCCC2)NC(=O)[C@H](C)NC(=O)[C@H](CCc2ccc(C(F)(F)F)c(Cl)c2)NC(=O)CN(C)C(=O)[C@H](Cc2ccc(C)cc2)N(C)C(=O)[C@@H]2CCN2C(=O)[C@H](C)N(C)C1=O [Compound 957] ([NMeL]I[NMeA][Aze][NMePhe(4-Me)][Sar][hPhe(3-Cl-4-CF3)]A[Ac5c][NMeI][NMeD]-NMe2; lactam N-11),0.44,100 to 500
CC[C@H](C)[C@@H]1NC(=O)[C@H](CC(C)C)N(C)C(=O)C[C@@H](C(=O)N(C)C)N(C)C(=O)[C@H]([C@@H](C)CC)N(C)C(=O)C2(CCCC2)NC(=O)[C@H](Cc2ccccc2)N(C)C(=O)[C@H](CCc2ccc(C(F)(F)F)c(Cl)c2)NC(=O)CN(C)C(=O)[C@H](Cc2ccc(C)cc2)N(C)C(=O)[C@@H]2CCN2C(=O)[C@H](C)N(C)C1=O [Compound 958] ([NMeL]I[NMeA][Aze][NMePhe(4-Me)][Sar][hPhe(3-Cl-4-CF3)][NMeF][Ac5c][NMeI][NMeD]-NMe2; lactam N-11),2.1,20 to 50
CC[C@H](C)[C@@H]1NC(=O)[C@H](CC(C)C)N(C)C(=O)C[C@@H](C(=O)N2CCCCC2)N(C)C(=O)[C@H](CC2CCC2)N(C)C(=O)C2(CCCC2)NC(=O)[C@@H]2CCCN2C(=O)[C@H](CCc2ccc(C(F)(F)F)c(Cl)c2)NC(=O)CN(C)C(=O)[C@H](CC2CCCCC2)N(C)C(=O)CN(C)C(=O)CN(C)C1=O [Compound 968] ([NMeL]I[Sar][Sar][NMeCha][Sar][hPhe(3-Cl-4-CF3)]P[Ac5c][NMeCba][NMeD]-Piperidide; lactam N-11),3.1,100 to 500
CC[C@H](C)[C@@H]1NC(=O)[C@H](C2CC2)N(C)C(=O)C[C@@H](C(=O)N2CCCCC2)N(C)C(=O)[C@H](C(C)C)N(C)C(=O)C2(CCCC2)NC(=O)[C@@H]2CCCN2C(=O)[C@H](CCc2ccc(C(F)(F)F)c(Cl)c2)NC(=O)CN(C)C(=O)[C@H](CC2CCCCC2)N(C)C(=O)CN(C)C(=O)CN(C)C1=O [Compound 980] ([NMeGly(cPr)]I[Sar][Sar][NMeCha][Sar][hPhe(3-Cl-4-CF3)]P[Ac5c][NMeV][NMeD]-Piperidide; lactam N-11),3.8,100 to 500
CC[C@H](C)[C@@H]1NC(=O)[C@H](CC2CCCCC2)N(C)C(=O)C[C@@H](C(=O)N2CCCCC2)N(C)C(=O)[C@H](C2CCCCC2)N(C)C(=O)C2(CCCC2)NC(=O)[C@@H]2CCCN2C(=O)[C@H](CCc2ccc(C(F)(F)F)c(Cl)c2)NC(=O)CN(C)C(=O)[C@H](CC2CCCCC2)N(C)C(=O)CN(C)C(=O)CN(C)C1=O [Compound 983] ([NMeCha]I[Sar][Sar][NMeCha][Sar][hPhe(3-Cl-4-CF3)]P[Ac5c][NMeChg][NMeD]-Piperidide; lactam N-11),1.8,100 to 500
CC[C@H](C)[C@@H]1NC(=O)[C@H](CC(C)C)N(C)C(=O)C[C@@H](C(=O)N2CCCCC2)N(C)C(=O)[C@H](C(C)C)N(C)C(=O)C2(CCCC2)NC(=O)[C@@H]2CCCN2C(=O)[C@H](CCc2ccc(C(F)(F)F)c(Cl)c2)NC(=O)CN(C)C(=O)[C@H](CC2CCCCC2)N(C)C(=O)[C@@H]2CCN2C(=O)[C@@H]2CCCCN2C1=O [Compound 988] ([NMeL]I[Pip][Aze][NMeCha][Sar][hPhe(3-Cl-4-CF3)]P[Ac5c][NMeV][NMeD]-Piperidide; lactam N-11),12,100 to 500
CCCC[C@@H]1NC(=O)[C@H](Cc2cccc(I)c2)NC(=O)CN(C)C(=O)[C@H](Cc2ccc(Cl)cc2)N(C)C(=O)CN(C)C(=O)CN(C)C(=O)[C@H]([C@@H](C)CC)NC(=O)[C@H](CC(C)C)N(C)C(=O)C[C@@H](C(=O)N2CCCCC2)N(C)C(=O)[C@H](CC(C)C)NC(=O)[C@H](Cc2ccc(F)cc2)N(C)C1=O [Compound 997] ([NMeL]I[Sar][Sar][NMePhe(4-Cl)][Sar][Phe(3-I)][Nle][NMePhe(4-F)]L[NMeD]-Piperidide; lactam N-11),24,100 to 500
CC[C@H](C)[C@@H]1NC(=O)[C@H](CC(C)C)N(C)C(=O)C[C@@H](C(=O)N(C)C)N(C)C(=O)[C@H]([C@@H](C)CC)N(C)C(=O)C2(CCCC2)NC(=O)[C@H](Cc2cccc(F)c2)N(C)C(=O)[C@H](CCc2ccc(C(F)(F)F)c(Cl)c2)NC(=O)CN(C)C(=O)[C@H](Cc2ccc(C)cc2)N(C)C(=O)[C@@H]2CCN2C(=O)[C@H](C)N(C)C1=O [Compound 1000] ([NMeL]I[NMeA][Aze][NMePhe(4-Me)][Sar][hPhe(3-Cl-4-CF3)][NMePhe(3-F)][Ac5c][NMeI][NMeD]-NMe2; lactam N-11),2.6,20 to 50
"CC[C@H](C)[C@@H]1NC(=O)[C@H](CC(F)(F)F)N(C)C(=O)C[C@@H](C(=O)N2CCOCC2)N(C)C(=O)[C@H](C2CCCCC2)N(C)C(=O)C2(CCCC2)NC(=O)[C@@H]2CCCN2C(=O)[C@H](CCc2ccc(C(F)(F)F)c(Cl)c2)NC(=O)CN(C)C(=O)[C@H](Cc2ccc(C)cc2)N(C)C(=O)CN(C)C(=O)CN(C)C1=O [Compound 1001] ([NMeAbu(4,4,4-F3)]I[Sar][Sar][NMePhe(4-Me)][Sar][hPhe(3-Cl-4-CF3)]P[Ac5c][NMeChg][NMeD]-Morpholide; lactam N-11)",0.44,20 to 50
CC[C@H](C)[C@@H]1NC(=O)[C@H](CC(C)C)N(C)C(=O)C[C@@H](C)N(C)C(=O)[C@H](CC2CC2)N(C)C(=O)C2(CCCC2)NC(=O)[C@@H]2CCCN2C(=O)[C@H](CCc2ccc(C(F)(F)F)c(Cl)c2)NC(=O)CN(C)C(=O)[C@H](CC2CCCCC2)N(C)C(=O)CN(C)C(=O)CN(C)C1=O [Compound 1019] (cyclo([Ac5c][NMeAla(cPr)][NMedβ3hAla][NMeL]I[Sar][Sar][NMeCha][Sar][hPhe(3-Cl-4-CF3)]P)),14,100 to 500
CC[C@H](C)[C@@H]1NC(=O)[C@H](CC(C)C)N(C)C(=O)C[C@@H](C(=O)N2CCCCC2)N(C)C(=O)[C@H](C2CCCCC2)N(C)C(=O)C2(CCCC2)NC(=O)[C@@H]2CC(=O)CN2C(=O)[C@H](CCc2ccc(C(F)(F)F)c(Cl)c2)NC(=O)CN(C)C(=O)[C@H](CC2CCCCC2)N(C)C(=O)CN(C)C(=O)CN(C)C1=O [Compound 1022] ([NMeL]I[Sar][Sar][NMeCha][Sar][hPhe(3-Cl-4-CF3)][Pro(4-oxo)][Ac5c][NMeChg][NMeD]-Piperidide; lactam N-11),0.42,100 to 500
CCCC[C@@H]1NC(=O)[C@H](Cc2cccc(I)c2)NC(=O)CN(C)C(=O)[C@H](Cc2ccc(Cl)cc2)N(C)C(=O)CN(C)C(=O)CN(C)C(=O)[C@H]([C@@H](C)CC)NC(=O)[C@H](CC(C)C)N(C)C(=O)C[C@@H](C(=O)N2CCCCC2)N(C)C(=O)[C@H](CC(C)C)NC(=O)[C@H](Cc2ccccc2F)N(C)C1=O [Compound 1035] ([NMeL]I[Sar][Sar][NMePhe(4-Cl)][Sar][Phe(3-I)][Nle][NMePhe(2-F)]L[NMeD]-Piperidide; lactam N-11),11,100 to 500
CC[C@H](C)[C@@H]1NC(=O)[C@H](COC)N(C)C(=O)C[C@@H](C(=O)N2CCCCC2)N(C)C(=O)[C@H](C2CCCCC2)N(C)C(=O)C2(CCCC2)NC(=O)[C@@H]2CCCN2C(=O)[C@H](CCc2ccc(C(F)(F)F)c(Cl)c2)NC(=O)CN(C)C(=O)[C@H](CC2CCCCC2)N(C)C(=O)CN(C)C(=O)CN(C)C1=O [Compound 1037] ([NMeS](Me)I[Sar][Sar][NMeCha][Sar][hPhe(3-Cl-4-CF3)]P[Ac5c][NMeChg][NMeD]-Piperidide; lactam N-11),0.66,50 to 100
C=CC[C@@]1(C)NC(=O)[C@@H]2CCCN2C(=O)[C@H](CCc2ccc(C(F)(F)F)c(Cl)c2)NC(=O)CN(C)C(=O)[C@H](CC2CCCCC2)N(C)C(=O)CN(C)C(=O)CN(C)C(=O)[C@H]([C@@H](C)CC)NC(=O)[C@H](CC(C)C)N(C)C(=O)C[C@@H](C)N(C)C(=O)[C@H](C(C)C)N(C)C1=O [Compound 1038] (cyclo(I[Sar][Sar][NMeCha][Sar][hPhe(3-Cl-4-CF3)]P[dαMeGly(allyl)][NMeV][NMedβ3hAla][NMeL])),18,100 to 500
CC[C@H](C)[C@@H]1NC(=O)[C@H](C)N(CC)C(=O)C[C@@H](C(=O)N2CCCCC2)N(C)C(=O)[C@H](C(C)C)N(C)C(=O)C2(CCCC2)NC(=O)[C@@H]2CCCN2C(=O)[C@H](CCc2ccc(C(F)(F)F)c(Cl)c2)NC(=O)CN(C)C(=O)[C@H](CC2CCCCC2)N(C)C(=O)CN(C)C(=O)CN(C)C1=O [Compound 1051] ([NEtAla]I[Sar][Sar][NMeCha][Sar][hPhe(3-Cl-4-CF3)]P[Ac5c][NMeV][NMeD]-Piperidide; lactam N-11),2.9,100 to 500
CC[C@H](C)[C@@H]1NC(=O)[C@H](C)N(C)C(=O)C[C@@H](C(=O)N2CCCCC2)N(C)C(=O)[C@H](C2CCCCC2)N(C)C(=O)C2(CCCC2)NC(=O)[C@@H]2CCCN2C(=O)[C@H](CCc2ccc(C)cc2)NC(=O)CN(C)C(=O)[C@H](CC2CCCCC2)N(C)C(=O)CN(C)C(=O)CN(C)C1=O [Compound 1055] ([NMeA]I[Sar][Sar][NMeCha][Sar][X33]P[Ac5c][NMeChg][NMeD]-Piperidide; lactam N-11),2.2,100 to 500
